These results are taken from patent US20240376076A1, “INHIBITORS TARGETING UBIQUITIN SPECIFIC PROTEASE 7 (USP7)” (Dana-Farber Cancer Institute, Inc., priority 2021, published 2024).

Data set [1] in a line: mouse liver microsomal stability (Microsome Assay Protocol). Format: in vitro ADME. The settings on record: pH 7.4; mouse liver microsomes, NADPH, 37° C.; read-out: MLM t1/2, min. How it is done:
ND refers to not disclosed.
• 1. Buffer A: 1.0 L of 0.1 M monobasic Potassium Phosphate buffer containing 1.0 mM EDTA Buffer B: 1.0 L of 0.1 M Dibasic Potassium Phosphate buffer containing 1.0 mM EDTA • Buffer C: 0.1 M Potassium Phosphate buffer, 1.0 mM EDTA, pH 7.4 by titrating 700 mL of buffer B with buffer A while monitoring with a pH meter. • 2. Reference compound (Ketanserin) and test compounds spiking solution: • 500 μM spiking solution: added 10 μL of 10 mM DMSO stock solution into 190 μL ACN. • 1.5 μM spiking solution in microsomes (0.75 mg/mL): added 1.5 μL of 500 μM spiking solution and 18.75 μL of 20 mg/mL liver microsomes into 479.75 μL of Buffer C on ice. • 3. Prepared NADPH stock solution (6 mM) by dissolving NADPH into buffer C. Dispensed 30 μL of 1.5 μM spiking solution containing 0.75 mg/mL microsomes solution to the assay plates designated for different time points (0-, 5-, 15-, 30-, 45-min) on ice. For 0-min, added 135 μL of ACN containing IS to the wells of 0-min plate and then added 15 μL of NADPH stock solution (6 mM). Pre-incubated all other plates at 37° C. for 5 minutes. Added 15 μL of NADPH stock solution (6 mM) to the plates to start the reaction and timing. At 5-min, 15-min, 30-min, and 45-min, added 135 μL of ACN containing IS to the wells of corresponding plates, respectively, to stop the reaction. After quenching, shook the plates at the vibrator (IKA, MTS 2/4) for 10 min (600 rpm/min) and then centrifuged at 5594 g for 15 min (Thermo Multifuge×3R). Transferred 50 μL of the supernatant from each well into a 96-well sample plate containing 50 μL of ultra pure water (Millipore, ZMQS50F01) for LC/MS analysis.
In general terms: Microsomes from liver hold many membrane-bound enzymes, among them those of drug oxidation.

The target of data set [2] is T1, USP7, Active human recombinant protein (Homo sapiens, UniProt Q93009).
T1 construct: purchased CP Lot; 20200225001
T1 sequence (Q93009 whole entry): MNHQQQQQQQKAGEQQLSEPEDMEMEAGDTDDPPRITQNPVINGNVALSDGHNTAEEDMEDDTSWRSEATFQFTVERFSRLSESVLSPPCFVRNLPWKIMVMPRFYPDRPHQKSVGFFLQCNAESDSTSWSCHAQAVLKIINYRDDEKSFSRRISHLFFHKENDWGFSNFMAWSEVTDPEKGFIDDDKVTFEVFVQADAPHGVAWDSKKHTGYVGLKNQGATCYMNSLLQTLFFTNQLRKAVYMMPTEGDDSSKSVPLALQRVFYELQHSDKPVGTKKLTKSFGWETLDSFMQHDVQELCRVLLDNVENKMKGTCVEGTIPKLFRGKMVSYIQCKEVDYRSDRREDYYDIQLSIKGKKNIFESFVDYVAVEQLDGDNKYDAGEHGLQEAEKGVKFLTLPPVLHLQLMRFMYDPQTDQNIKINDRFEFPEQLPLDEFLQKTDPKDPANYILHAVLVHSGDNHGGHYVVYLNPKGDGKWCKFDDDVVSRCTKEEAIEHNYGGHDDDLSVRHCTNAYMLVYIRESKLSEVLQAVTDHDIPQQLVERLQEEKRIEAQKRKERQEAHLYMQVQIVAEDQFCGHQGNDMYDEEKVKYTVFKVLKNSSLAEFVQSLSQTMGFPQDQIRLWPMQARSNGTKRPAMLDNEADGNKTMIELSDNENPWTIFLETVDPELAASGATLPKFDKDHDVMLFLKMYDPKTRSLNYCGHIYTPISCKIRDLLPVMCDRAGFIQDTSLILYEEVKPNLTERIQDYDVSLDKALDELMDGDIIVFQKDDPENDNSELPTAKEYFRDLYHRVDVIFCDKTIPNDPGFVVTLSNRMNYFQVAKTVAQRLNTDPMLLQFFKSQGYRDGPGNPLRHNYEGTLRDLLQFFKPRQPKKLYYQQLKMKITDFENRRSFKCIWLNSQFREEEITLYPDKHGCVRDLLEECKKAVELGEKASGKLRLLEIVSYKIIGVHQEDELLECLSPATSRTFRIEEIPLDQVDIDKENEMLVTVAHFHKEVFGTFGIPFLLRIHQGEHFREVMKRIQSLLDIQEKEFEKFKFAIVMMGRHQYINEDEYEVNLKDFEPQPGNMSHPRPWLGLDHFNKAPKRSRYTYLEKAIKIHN
The data set is described as follows: USP7 assay (Ubiquitin-Rhodamine 110 enzymatic assay). As to conditions: read-out: IC50. Format: biochemical. The essentials:
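Kinetic 20-min fluorescence read (485/535 nm) of ubiquitin-rhodamine 110 (190 nM final) cleavage by 0.05 nM USP7 gave slopes. Compounds, 10 concentrations in 3-fold steps, had 15 min RT preincubation with enzyme first. Inhibition relative to max (enzyme+substrate) and min (substrate only) signals, fitted to IC50.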

Usually IC50 stands for the concentration at which inhibition is half-maximal. On to `CN(C)CCCOc1ccc2c(=O)n(CC3(O)CCN(C(=O)C(CCCNC(=O)c4ccc5c(Cl)c6c(nc5c4)C(C)(C)NC6=O)Cc4ccccc4)CC3)cnc2c1` (stereo not shown), for which, in data set [1], the half-life at 1 µM stood at 16.3 min. Moreover, the IC50 in data set [2] is more than 1000 nM.
In the same order, the values of `Cn1nc2c(=O)n(CC3(O)CCN(C(=O)C(CCCNC(=O)c4ccc5c(Cl)ccnc5c4)Cc4ccccc4)CC3)cnc2c1-c1cccc(C#N)c1` (stereo not shown) [Compound 10, N-(4-benzyl-5-(4-((3-(3-cyanophenyl)-2-methyl-7-oxo-2,7-dihydro-6H-pyrazolo[4,3-d]pyrimidin-6-yl)methyl)-4-hydroxypiperidin-1-yl)-5-oxopentyl)-4-chloroquinoline-7-carboxamide] are 1.5 min and 20 to 100 nM.
On to `CC(C)c1cc(Cl)c2ccc(C(=O)NCCC[C@H](Cc3ccccc3)C(=O)N3CCC(O)(Cn4cnc5cc(OCCCN(C)C)ccc5c4=O)CC3)cc2n1` [Compound 120], for which the half-life at 1 µM in data set [1] amounted to 5.89 min. The IC50 in data set [2] was less than 20 nM.
The corresponding values for `O=C(CN1CCN(C(=O)c2ccc3c(Cl)c4c(nc3c2)CCCC4)CC1)N1CCC(O)(Cn2cnc3cc(Cl)ccc3c2=O)CC1` are 2.31 min and more than 1000 nM.
The corresponding values for `CN(C)CC(=O)Nc1ccc2c(=O)n(CC3(O)CCN(C(=O)C(CCCNC(=O)c4ccc5c(Cl)c6c(nc5c4)CCN(C)C6)Cc4ccccc4)CC3)cnc2c1` (stereo not shown) [Compound 32, N-(4-benzyl-5-(4-((7-(2-(dimethylamino)acetamido)-4-oxoquinazolin-3(4H)-yl)methyl)-4-hydroxypiperidin-1-yl)-5-oxopentyl)-10-chloro-2-methyl-1,2,3,4-tetrahydrobenzo[b][1,6]naphthyridine-7-carboxamide] are 2.5 min and 20 to 100 nM.
On to `O=C(CCN1CCOCC1)Nc1ccc2c(=O)n(CC3(O)CCN(C(=O)C(CCCNC(=O)c4ccc5c(Cl)ccnc5c4)Cc4ccccc4)CC3)cnc2c1` (stereo not shown) [Compound 60, N-(4-benzyl-5-(4-hydroxy-4-((7-(3-morpholinopropanamido)-4-oxoquinazolin-3(4H)-yl)methyl)piperidin-1-yl)-5-oxopentyl)-4-chloroquinoline-7-carboxamide], for which, in data set [1], the half-life at 1 µM stood at 2.71 min. The IC50 in data set [2] is 20 to 100 nM.
In the same order, the values of `CC(=O)N1CCc2nc3cc(C(=O)NCCCC(Cc4ccccc4)C(=O)N4CCC(O)(Cn5cnc6cc(NC(=O)CN(C)C)ccc6c5=O)CC4)ccc3c(Cl)c2C1` (stereo not shown) [Compound 33, 2-acetyl-N-(4-benzyl-5-(4-((7-(2-(dimethylamino)acetamido)-4-oxoquinazolin-3(4H)-yl)methyl)-4-hydroxypiperidin-1-yl)-5-oxopentyl)-10-chloro-1,2,3,4-tetrahydrobenzo[b][1,6]naphthyridine-7-carboxamide] are 2.1 min and less than 20 nM.
With `CN(C)CCC(=O)Nc1ccc2c(=O)n(CC3(O)CCN(C(=O)C(CCCNC(=O)c4ccc5c(Cl)ccnc5n4)Cc4ccccc4)CC3)cnc2c1` (stereo not shown) [Compound 47, N-(4-benzyl-5-(4-((7-(3-(dimethylamino)propanamido)-4-oxoquinazolin-3(4H)-yl)methyl)-4-hydroxypiperidin-1-yl)-5-oxopentyl)-5-chloro-1,8-naphthyridine-2-carboxamide], the half-life at 1 µM in data set [1] was 12.4 min. The IC50 in data set [2] is 20 to 100 nM.
Consider `CN(C)CCCOc1ccc2c(=O)n(CC3(O)CCN(C(=O)[C@H](CCCNC(=O)c4ccc5c(Cl)c6c(nc5c4)CCNC6=O)Cc4ccccc4)CC3)cnc2c1`, for which the half-life at 1 µM in data set [1] stood at 10.2 min. In data set [2], the IC50 was in the range of 100 to 1000 nM.
The corresponding values for `CC(C)c1cnc2cc(C(=O)NCCC[C@H](Cc3ccccc3)C(=O)N3CCC(O)(Cn4cnc5cc(NC(=O)CCN(C)C)ccc5c4=O)CC3)ccc2c1Cl` [Compound 119] are 3.04 min and less than 20 nM.
In the case of `CN1CCN(CC(=O)Nc2ccc3c(=O)n(CC4(O)CCN(C(=O)C(CCCNC(=O)c5ccc6c(Cl)ccnc6c5)Cc5ccccc5)CC4)cnc3c2)CC1` (stereo not shown) [Compound 29, N-(4-benzyl-5-(4-hydroxy-4-((7-(2-(4-methylpiperazin-1-yl)acetamido)-4-oxoquinazolin-3(4H)-yl)methyl)piperidin-1-yl)-5-oxopentyl)-4-chloroquinoline-7-carboxamide], the half-life at 1 µM in data set [1] stood at 16.7 min. Also, the IC50 in data set [2] lay within 20 to 100 nM.
For the compound `O=C(NCCCC(Cc1ccccc1)C(=O)N1CCC(O)(Cn2cnc(NCCN3CCCC3)cc2=O)CC1)c1ccc2c(Cl)ccnc2c1` (stereo not shown) [Compound 11, N-(4-benzyl-5-(4-hydroxy-4-((6-oxo-4-(2-(pyrrolidin-1-yl)ethylamino)pyrimidin-1(6H)-yl)methyl)piperidin-1-yl)-5-oxopentyl)-4-chloroquinoline-7-carboxamide], the half-life at 1 µM in data set [1] was determined as 12.1 min. Also, the concentration for half-maximal inhibition (IC50) in data set [2] is 20 to 100 nM.
As for `CC(c1ccccc1)C(CCCNC(=O)c1ccc2c(Cl)cc(C3CC3)nc2c1)C(=O)N1CCC(O)(Cn2cnc3cc(OCCCN(C)C)ccc3c2=O)CC1` (stereo not shown), in data set [1], the half-life at 1 µM was found to be 7.27 min. Moreover, the half-maximal inhibitory concentration (IC50) in data set [2] fell in the range of 20 to 100 nM.
As for `CN(C)CCCOc1ccc2c(=O)n(CC3(O)CCN(C(=O)[C@H](CCCNC(=O)c4ccc5c(Cl)c(C#N)cnc5c4)Cc4ccccc4)CC3)cnc2c1`, the half-life at 1 µM in data set [1] turned out to be 1.67 min. Besides, the IC50 in data set [2] was less than 20 nM.
In the same order, the values of `CN(C)CCC(=O)Nc1ccc2c(=O)n(CC3(O)CCN(C(=O)C(CCCNC(=O)c4ccc5c(Cl)cc(C(N)=O)nc5c4)Cc4ccccc4)CC3)cnc2c1` (stereo not shown) [Compound 71] are 54.6 min and 100 to 1000 nM.
As for `CN(C)CCCOc1ccc2c(=O)n(CC3(O)CCN(C(=O)[C@H](CCCNC(=O)c4ccc5c(Cl)c(C(=O)N(C)C)cnc5c4)Cc4ccccc4)CC3)cnc2c1`, the half-life at 1 µM in data set [1] came out at 33.8 min. The IC50 in data set [2] was 100 to 1000 nM.
In the same order, the values of `CN(C)CCC(=O)Nc1ccc2c(=O)n(CC3(O)CCN(C(=O)C(CCCNC(=O)c4ccc5c(Cl)c6c(nc5c4)CN(C)CC6)Cc4ccccc4)CC3)cnc2c1` (stereo not shown) [Compound 40, N-(4-benzyl-5-(4-((7-(3-(dimethylamino)propanamido)-4-oxoquinazolin-3(4H)-yl)methyl)-4-hydroxypiperidin-1-yl)-5-oxopentyl)-5-chloro-2-methyl-1,2,3,4-tetrahydrobenzo[b][1,7]naphthyridine-8-carboxamide] are 7.4 min and 20 to 100 nM.
The corresponding values for `CN(C)CCC(=O)Nc1ccc2c(=O)n(CC3(O)CCN(C(=O)c4cn(CCNC(=O)c5ccc6c(Cl)ccnc6c5)nc4-c4ccccc4)CC3)cnc2c1` [Compound 55, 4-chloro-N-(2-(4-(4-((7-(3-(dimethylamino)propanamido)-4-oxoquinazolin-3(4H)-yl)methyl)-4-hydroxypiperidine-1-carbonyl)-3-phenyl-1H-pyrazol-1-yl)ethyl)quinoline-7-carboxamide] are 35.6 min and more than 1000 nM.
Take `Cc1cc(Cl)c2ccc(C(=O)NCCCC(Cc3ccccc3)C(=O)N3CCC(O)(Cn4cnc5cc(NC(=O)CCN(C)C)ccc5c4=O)CC3)cc2n1` (stereo not shown) [Compound 49, N-(4-benzyl-5-(4-((7-(3-(dimethylamino)propanamido)-4-oxoquinazolin-3(4H)-yl)methyl)-4-hydroxypiperidin-1-yl)-5-oxopentyl)-4-chloro-2-methylquinoline-7-carboxamide]: in data set [1], the half-life at 1 µM was 13.5 min. In addition, the IC50 in data set [2] is less than 20 nM.
In the same order, the values of `CN(C)CC(=O)Nc1ccc2c(=O)n(CC3(O)CCN(C(=O)C(CCCNC(=O)c4ccc5c(Cl)c6c(nc5c4)CN(C)C6)Cc4ccccc4)CC3)cnc2c1` (stereo not shown) [Compound 31, N-(4-benzyl-5-(4-((7-(2-(dimethylamino)acetamido)-4-oxoquinazolin-3(4H)-yl)methyl)-4-hydroxypiperidin-1-yl)-5-oxopentyl)-9-chloro-2-methyl-2,3-dihydro-1H-pyrrolo[3,4-b]quinoline-6-carboxamide] are 2.9 min and 100 to 1000 nM.
In the same order, the values of `O=C(NCCCC(Cn1ccc(F)n1)C(=O)N1CCC(O)(Cn2cnc3ccccc3c2=O)CC1)c1ccc2c(Cl)c(C(=O)NC3CC3)cnc2c1` (stereo not shown) are 4.61 min and 20 to 100 nM.
On to `CN(C)CCCOc1ccc2c(=O)n(CC3(O)CCN(C(=O)C(CCCNC(=O)c4ccc5c(Cl)c(C(=O)NC6CC6)cnc5c4)Cn4ccc(F)n4)CC3)cnc2c1` (stereo not shown), for which, in data set [1], the half-life at 1 µM came out at 152 min. Moreover, in data set [2], the IC50 is less than 20 nM.
The corresponding values for `CN(C)CCC(=O)Nc1ccc2c(=O)n(CC3(O)CCN(C(=O)C4CN(CCNC(=O)c5ccc6c(Cl)ccnc6c5)CC4Cc4ccccc4)CC3)cnc2c1` (stereo not shown) [Compound 54] are 36.5 min and 20 to 100 nM.
